According to US8192962B2, “Processes for detecting toxic substances” (Daikin Industries, Ltd., priority 2001, dated 2012):

Test system: Unknown protein yeast genes
Assay: DNA chip mRNA expression in yeast, unknown protein yeast genes (Table 1)
Assay type: cell-based, Saccharomyces cerevisiae S288C
In short: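 S. cerevisiae S288C grown at 25° C in YPD were exposed in log phase for two hours to one toxic chemical at a growth-inhibiting, non-lethal concentration; untreated cells served as control. Poly(A) mRNA was reverse-transcribed with Cy3/Cy5-dUTP and hybridized to a whole-genome yeast DNA chip at 65° C for over 12 hours; values are fluorescence ratios versus untreated.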

Measured: The level of expressed mRNA in the presence of chemical substance/The level of expressed mRNA in the absence of chemical substance

CCCCCCCCCCCCOS(=O)(=O)[O-].[Na+] [(18), sodium lauryl sulfate]
2.5: yeast gene YMR009W, incubated two hours with chemical substance | yeast gene YOL082W, incubated two hours with chemical substance
0.9: yeast gene YDR545W, incubated two hours with chemical substance | yeast gene YHR199C, incubated two hours with chemical substance | yeast gene YJR054W, incubated two hours with chemical substance | yeast gene YKL071W | yeast gene YLR194C, incubated two hours with chemical substance | yeast gene YNL281W, incubated two hours with chemical substance | yeast gene YOL036W, incubated two hours with chemical substance | yeast gene YOL131W, incubated two hours with chemical substance | yeast gene YOL162W, incubated two hours with chemical substance | yeast gene YPL222W, incubated two hours with chemical substance
0.8: yeast gene YER106W, incubated two hours with chemical substance | yeast gene YFL006W, incubated two hours with chemical substance | yeast gene YFL024C | yeast gene YFL032W, incubated two hours with chemical substance
2.4: yeast gene YDR391C, incubated two hours with chemical substance | yeast gene YJL151C, incubated two hours with chemical substance
1.7: yeast gene YJL152W, incubated two hours with chemical substance | yeast gene YMR180C, incubated two hours with chemical substance
2.0: yeast gene YMR184W, incubated two hours with chemical substance | yeast gene YOL071W, incubated two hours with chemical substance
1.4: yeast gene YBL107C | yeast gene YLR387C, incubated two hours with chemical substance | yeast gene YOL117W, incubated two hours with chemical substance | yeast gene YPR151C, incubated two hours with chemical substance
1.5: yeast gene YDR511W, incubated two hours with chemical substance | yeast gene YJL057C, incubated two hours with chemical substance | yeast gene YJL066C, incubated two hours with chemical substance | yeast gene YOR197W, incubated two hours with chemical substance
6.4: yeast gene YMR316W, incubated two hours with chemical substance
2.7: yeast gene YDL204W, incubated two hours with chemical substance | yeast gene YDR533C | yeast gene YJR008W, incubated two hours with chemical substance | yeast gene YPL087W, incubated two hours with chemical substance
1.8: yeast gene YKL151C, incubated two hours with chemical substance | yeast gene YLR152C, incubated two hours with chemical substance | yeast gene YMR097C, incubated two hours with chemical substance | yeast gene YOL032W, incubated two hours with chemical substance
8.1: yeast gene YMR107W, incubated two hours with chemical substance
0.3: yeast gene YJL082W, incubated two hours with chemical substance
2.8: yeast gene YDL072C, incubated two hours with chemical substance | yeast gene YMR090W | yeast gene YMR102C, incubated two hours with chemical substance | yeast gene YMR315W | yeast gene YNL144C | yeast gene YOR019W, incubated two hours with chemical substance
2.6: yeast gene YGL037C, incubated two hours with chemical substance | yeast gene YHR209W | yeast gene YNL115C, incubated two hours with chemical substance
1.2: yeast gene YER004W, incubated two hours with chemical substance | yeast gene YER158C, incubated two hours with chemical substance | yeast gene YER163C, incubated two hours with chemical substance | yeast gene YER175C, incubated two hours with chemical substance | yeast gene YGL047W, incubated two hours with chemical substance | yeast gene YGR154C, incubated two hours with chemical substance | yeast gene YLR324W, incubated two hours with chemical substance
1.3: yeast gene YDL222C, incubated two hours with chemical substance | yeast gene YDR330W, incubated two hours with chemical substance | yeast gene YDR411C, incubated two hours with chemical substance | yeast gene YEL001C, incubated two hours with chemical substance | yeast gene YGR221C, incubated two hours with chemical substance | yeast gene YKL153W, incubated two hours with chemical substance | yeast gene YKR091W, incubated two hours with chemical substance | yeast gene YML117W, incubated two hours with chemical substance | yeast gene YNL074C, incubated two hours with chemical substance
2.3: yeast gene YPL196W, incubated two hours with chemical substance
1.6: yeast gene YAL053W, incubated two hours with chemical substance | yeast gene YER079W, incubated two hours with chemical substance | yeast gene YFL010C, incubated two hours with chemical substance | yeast gene YGR130C, incubated two hours with chemical substance | yeast gene YIL087C, incubated two hours with chemical substance | yeast gene YKL195W, incubated two hours with chemical substance | yeast gene YNL092W, incubated two hours with chemical substance | yeast gene YNL305C, incubated two hours with chemical substance
2.2: yeast gene YOL150C
3.0: yeast gene YLR149C, incubated two hours with chemical substance
3.4: yeast gene YHR054C | yeast gene YMR295C, incubated two hours with chemical substance | yeast gene YNL044W, incubated two hours with chemical substance
3.2: yeast gene YOL083W, incubated two hours with chemical substance
1.9: yeast gene YNL156C, incubated two hours with chemical substance | yeast gene YPL206C, incubated two hours with chemical substance
1.0: yeast gene YBL048W | yeast gene YGL199C, incubated two hours with chemical substance | yeast gene YIL023C, incubated two hours with chemical substance | yeast gene YKL086W, incubated two hours with chemical substance | yeast gene YMR067C, incubated two hours with chemical substance | yeast gene YMR095C, incubated two hours with chemical substance | yeast gene YNL234W, incubated two hours with chemical substance | yeast gene YNR068C, incubated two hours with chemical substance | yeast gene YOL047C, incubated two hours with chemical substance
2.1: yeast gene YER035W, incubated two hours with chemical substance | yeast gene YGR110W | yeast gene YJL161W, incubated two hours with chemical substance | yeast gene YMR191W, incubated two hours with chemical substance
7.1: yeast gene YHR138C, incubated two hours with chemical substance
3.5: yeast gene YGL121C
4.4: yeast gene YDL110C | yeast gene YGR243W
3.7: yeast gene YGL053W, incubated two hours with chemical substance
2.9: yeast gene YJL171C, incubated two hours with chemical substance
1.1: yeast gene YGR101W, incubated two hours with chemical substance | yeast gene YIL041W, incubated two hours with chemical substance | yeast gene YLR054C, incubated two hours with chemical substance | yeast gene YLR350W, incubated two hours with chemical substance | yeast gene YLR460C | yeast gene YPR023C, incubated two hours with chemical substance
